Molecular target: T1, Leukotriene C4 synthase (Homo sapiens, UniProt Q16873)
T1 sequence (Q16873 whole entry): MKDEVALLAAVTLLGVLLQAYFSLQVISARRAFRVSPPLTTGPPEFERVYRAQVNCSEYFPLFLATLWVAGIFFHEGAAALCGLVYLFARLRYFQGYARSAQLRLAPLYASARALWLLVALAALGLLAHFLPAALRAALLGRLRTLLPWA
Experiment: Recombinant human LTC4 synthase is expressed in […] and the purified enzyme is dissolved in 25 mM tris-buffer pH 7.8 supplemented with 0.1 mM glutathione (GSH) and stored at −80 °C. […] The buffer is used as background. Runs are performed in duplicates. […] The reaction is stopped after 1 min by addition of double the reaction volume of a stop solution (MeOH:H2O:acetic acid 70:30:1).

| Structure (SMILES) | IC50 [µM] |
| --- | --- |
| COc1cc(N(Cc2cc(Cl)cc3c2OCO3)CC2CC2)cnc1C(=O)C1CC1C(=O)O (stereo not given) | 0.588 |
| COc1cc(N(Cc2ccc(C(F)(F)F)cc2F)CC2CC2)cnc1C(=O)C1CC1C(=O)O (stereo not given) | 0.053 |
| COc1cc(N(Cc2ccc(-c3ccccc3)cc2)CC2CC2)cnc1C(=O)C1CC1C(=O)O (stereo not given) | 2.18 |
| COc1cc(N(Cc2cccc3ccccc23)CC2CC2)cnc1C(=O)C1CC1C(=O)O (stereo not given) | 0.066 |
| COc1cc(N(Cc2cccc(C)c2)CC2CC2)cnc1C(=O)C1CC1C(=O)O (stereo not given) | 0.171 |
| COc1cc(N(CC2CC2)c2cccc3c(C)ccnc23)cnc1C(=O)C1CC1C(=O)O (stereo not given) | 0.445 |
| COc1cc(N(Cc2ccc(C)cc2)CC2CC2)cnc1C(=O)C1CC1C(=O)O (stereo not given) | 0.022 |
| COc1cc(N(Cc2cc(F)cc3c2OCOC3)CC2CC2)cnc1C(=O)C1CC1C(=O)O (stereo not given) | 0.478 |
| COc1cc(N(Cc2c(Cl)cccc2Cl)CC2CC2)cnc1C(=O)C1CC1C(=O)O (stereo not given) | 0.8 |
| COc1cc(N(CC2CC2)c2ccc(C)c3ccccc23)ncc1C(=O)C1CC1C(=O)O (stereo not given) | 0.056 |

From ChEMBL document CHEMBL3886663, “COMPOUNDS AND USES” (2016)
